From US20220346377A1, “NOVEL COMPOSITIONS” (DSM IP ASSETS B.V., priority 2019, published 2022)

Columns and labels:
Format in all cases: cell-based
Candida albicans = experiment: Antimicrobial efficacy in analogy to challenge test (NF EN ISO11930), Candida albicans
Procedure: The antimicrobial efficacy was assessed in analogy to the regulatory challenge test method (NF EN ISO11930). Thus, mixtures of the respective active(s) with physiological serum with 0.85 wt.-% NaCl in the concentrations as outlined below are prepared under sterile conditions. Controls were also prepared under sterile conditions. The control as well as the mixtures were then deposed in 96-deep well plates (1.6 ml/well). […] After the contamination, each well was thoroughly mixed to ensure a homogeneous distribution of microbes. Then each plate was incubated at 22° C. for 24 h. The counting of the (remaining) population is carried out 24 h after contamination. Then, the average log reduction is calculated [−log 10{(value inoculum)/(value sample)}] which is represented in tables 1-5.

Staphylococcus aureus = experiment: Antimicrobial efficacy in analogy to challenge test (NF EN ISO11930), Staphylococcus aureus
Procedure: (§1) The antimicrobial efficacy was assessed in analogy to the regulatory challenge test method (NF EN ISO11930). Thus, mixtures of the respective active(s) with physiological serum with 0.85 wt.-% NaCl in the concentrations as outlined below are prepared under sterile conditions. Controls were also prepared under sterile conditions. The control as well as the mixtures were then deposed in 96-deep well plates (1.6 ml/well). The wells were contaminated with the respective bacterial or the fungal strains at 2.5*10^5 to 5.6*10^5 cfu/ml for the bacteria and 1*10^4 to 2.5*10^4 cfu/ml for the fungi to obtain the initial contamination as outlined below. After the contamination, each well was thoroughly mixed to ensure a homogeneous distribution of microbes. Then each plate was incubated at 22° C. for 24 h. The counting of the (remaining) population is carried out 24 h after contamination. Then, the average log reduction is calculated [−log 10{(value inoculum)/(value sample)}] which is represented in tables 1-5.

Aspergillus brasiliensis = experiment: Antimicrobial efficacy in analogy to challenge test (NF EN ISO11930), Aspergillus brasiliensis; settings: 0.3 wt.-% DBO
Procedure: as §1

Escherichia coli = experiment: Antimicrobial efficacy in analogy to challenge test (NF EN ISO11930), Escherichia coli; settings: 0.2 wt.-% Sodium Benzoate
Procedure: as §1

c1ccc2oc(-c3ccc(-c4nc5ccccc5o4)cc3)nc2c1 [DBO, 1,4-di(benzoxazol-2′-yl)benzene]
Log reduction (Candida albicans; 0.3 wt.-% DBO, 24 h after contamination): −0.51
colony count 24 h (Candida albicans; 0.3 wt.-% DBO, inoculum 32000 cfu/ml, 22° C., 24 h, physiological serum 0.85 wt.-% NaCl): 10000 cfu/ml
synergistic effect on antimicrobial activity (Staphylococcus aureus; DBO with p-Hydroxyacetophenone, conclusion from Table 3): synergistically enhances the antimicrobial activity of p-Hydroxyacetophenone
Log reduction (Aspergillus brasiliensis; 24 h after contamination): −2.05
colony count 24 h (Aspergillus brasiliensis; inoculum 45000 cfu/ml, 22° C., 24 h): 400 cfu/ml

CC(=O)c1ccc(O)cc1 [HAP, p-Hydroxyacetophenone]
colony count 24 h (Staphylococcus aureus; 0.3 wt.-% HAP, inoculum 550000 cfu/ml, 24 h): 70000 cfu/ml

OCCCO [PDO, 1,3-propanediol]
Log reduction (Candida albicans; 1.0 wt.-% PDO, 24 h): −0.24
colony count 24 h (Candida albicans; 1.0 wt.-% PDO, inoculum 70000 cfu/ml, 24 h): 40000 cfu/ml

O=C([O-])c1ccccc1.[Na+] [Sodium Benzoate, sodium benzoate]
colony count 24 h (Escherichia coli; inoculum 400000 cfu/ml): 1000000 cfu/ml
Log reduction (Escherichia coli; 24 h): +0.40
